Reference: patent publication US20250236608A1, “EGFR INHIBITORS” (Blueprint Medicines Corporation, priority 2022, published 2025)

Legend:
[1] = target: EGFR (d746-750) (Homo sapiens (Human), UniProt P00533, DEL746-750); test: Biochemical EGFR inhibition assay, EGFR (d746-750); settings: Caliper mobility shift; 1.0 mM ATP or ATP Km; read-out: Enz EGFR_Exon19-del746-750 IC50
[2] = target: pEGFR (Tyr1068) in PC-9 cells (Ex19Del) (Homo sapiens (Human), UniProt P00533, DEL746-750); test: PC-9 pEGFR AlphaLISA assay; assay type: cell-based; settings: 4 hours incubation, p-EGFR (Tyr1068) AlphaLISA, read-out: Ext pEGFR_PC-9 Ex19Del IC50
Method in brief: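 Readout: AlphaLISA SureFire Ultra signal in cell lysates, with acceptor beads for 1.5-2 h and donor beads overnight at room temperature in the dark. Beforehand, unstimulated cells in 10% FBS medium received compounds (10 points, 4-fold steps) for 4 h at 37° C. IC50 came from percent inhibition curves.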

[3] = target: EGFR L858R (Homo sapiens (Human), UniProt P00533, L858R); test: Biochemical EGFR inhibition assay, EGFR L858R; settings: Caliper mobility shift; 1.0 mM ATP or ATP Km; read-out: Enz EGFR_L858R IC50
Sequence of EGFR L858R (P00533 25-1210 L858R): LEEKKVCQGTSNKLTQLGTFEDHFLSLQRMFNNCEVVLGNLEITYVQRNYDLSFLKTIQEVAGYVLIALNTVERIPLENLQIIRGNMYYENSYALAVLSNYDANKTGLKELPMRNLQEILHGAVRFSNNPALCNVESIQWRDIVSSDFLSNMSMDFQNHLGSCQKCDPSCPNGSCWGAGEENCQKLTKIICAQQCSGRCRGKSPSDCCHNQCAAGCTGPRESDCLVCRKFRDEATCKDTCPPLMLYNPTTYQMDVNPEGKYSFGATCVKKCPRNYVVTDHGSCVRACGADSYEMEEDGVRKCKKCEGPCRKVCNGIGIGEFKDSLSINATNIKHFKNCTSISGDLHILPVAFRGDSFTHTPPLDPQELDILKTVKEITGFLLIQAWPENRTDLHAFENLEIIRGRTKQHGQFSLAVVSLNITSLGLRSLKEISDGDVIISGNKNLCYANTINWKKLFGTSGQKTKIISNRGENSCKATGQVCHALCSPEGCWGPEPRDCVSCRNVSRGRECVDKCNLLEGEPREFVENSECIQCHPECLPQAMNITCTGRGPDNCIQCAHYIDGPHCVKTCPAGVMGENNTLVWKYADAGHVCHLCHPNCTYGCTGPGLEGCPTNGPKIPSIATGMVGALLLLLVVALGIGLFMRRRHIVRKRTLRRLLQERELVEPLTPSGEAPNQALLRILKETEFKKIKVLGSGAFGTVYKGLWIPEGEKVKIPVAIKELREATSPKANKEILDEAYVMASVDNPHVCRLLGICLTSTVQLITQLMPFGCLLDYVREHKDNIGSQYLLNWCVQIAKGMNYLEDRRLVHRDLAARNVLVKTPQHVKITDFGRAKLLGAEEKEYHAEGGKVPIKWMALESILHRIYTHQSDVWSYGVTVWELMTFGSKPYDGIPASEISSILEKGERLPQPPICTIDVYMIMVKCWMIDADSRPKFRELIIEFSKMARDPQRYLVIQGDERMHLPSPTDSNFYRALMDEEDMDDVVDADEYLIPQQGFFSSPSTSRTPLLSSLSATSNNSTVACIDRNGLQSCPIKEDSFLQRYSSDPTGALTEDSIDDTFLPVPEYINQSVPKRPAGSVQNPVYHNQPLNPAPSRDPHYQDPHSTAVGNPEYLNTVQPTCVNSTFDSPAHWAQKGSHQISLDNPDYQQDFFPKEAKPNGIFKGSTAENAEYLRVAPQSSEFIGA

Sequence of EGFR (d746-750) (P00533 other isoform, or with tags, fused parts or gaps del 1-694/del 746-750 limits assumed): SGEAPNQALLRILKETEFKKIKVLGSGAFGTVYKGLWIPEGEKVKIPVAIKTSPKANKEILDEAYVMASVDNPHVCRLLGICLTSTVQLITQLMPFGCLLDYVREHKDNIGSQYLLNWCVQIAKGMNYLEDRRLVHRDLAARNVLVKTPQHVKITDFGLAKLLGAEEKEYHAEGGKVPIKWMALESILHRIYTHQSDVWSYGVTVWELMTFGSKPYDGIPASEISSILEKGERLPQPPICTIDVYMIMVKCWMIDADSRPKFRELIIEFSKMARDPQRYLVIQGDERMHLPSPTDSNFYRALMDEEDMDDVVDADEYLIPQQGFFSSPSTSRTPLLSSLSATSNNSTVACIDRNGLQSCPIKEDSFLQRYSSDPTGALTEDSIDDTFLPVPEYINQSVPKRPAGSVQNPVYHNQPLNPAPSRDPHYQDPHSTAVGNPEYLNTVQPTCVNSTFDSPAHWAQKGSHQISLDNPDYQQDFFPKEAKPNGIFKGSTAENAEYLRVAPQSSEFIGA
Sequence of pEGFR (Tyr1068) in PC-9 cells (Ex19Del) (P00533 other isoform, or with tags, fused parts or gaps del 746-750): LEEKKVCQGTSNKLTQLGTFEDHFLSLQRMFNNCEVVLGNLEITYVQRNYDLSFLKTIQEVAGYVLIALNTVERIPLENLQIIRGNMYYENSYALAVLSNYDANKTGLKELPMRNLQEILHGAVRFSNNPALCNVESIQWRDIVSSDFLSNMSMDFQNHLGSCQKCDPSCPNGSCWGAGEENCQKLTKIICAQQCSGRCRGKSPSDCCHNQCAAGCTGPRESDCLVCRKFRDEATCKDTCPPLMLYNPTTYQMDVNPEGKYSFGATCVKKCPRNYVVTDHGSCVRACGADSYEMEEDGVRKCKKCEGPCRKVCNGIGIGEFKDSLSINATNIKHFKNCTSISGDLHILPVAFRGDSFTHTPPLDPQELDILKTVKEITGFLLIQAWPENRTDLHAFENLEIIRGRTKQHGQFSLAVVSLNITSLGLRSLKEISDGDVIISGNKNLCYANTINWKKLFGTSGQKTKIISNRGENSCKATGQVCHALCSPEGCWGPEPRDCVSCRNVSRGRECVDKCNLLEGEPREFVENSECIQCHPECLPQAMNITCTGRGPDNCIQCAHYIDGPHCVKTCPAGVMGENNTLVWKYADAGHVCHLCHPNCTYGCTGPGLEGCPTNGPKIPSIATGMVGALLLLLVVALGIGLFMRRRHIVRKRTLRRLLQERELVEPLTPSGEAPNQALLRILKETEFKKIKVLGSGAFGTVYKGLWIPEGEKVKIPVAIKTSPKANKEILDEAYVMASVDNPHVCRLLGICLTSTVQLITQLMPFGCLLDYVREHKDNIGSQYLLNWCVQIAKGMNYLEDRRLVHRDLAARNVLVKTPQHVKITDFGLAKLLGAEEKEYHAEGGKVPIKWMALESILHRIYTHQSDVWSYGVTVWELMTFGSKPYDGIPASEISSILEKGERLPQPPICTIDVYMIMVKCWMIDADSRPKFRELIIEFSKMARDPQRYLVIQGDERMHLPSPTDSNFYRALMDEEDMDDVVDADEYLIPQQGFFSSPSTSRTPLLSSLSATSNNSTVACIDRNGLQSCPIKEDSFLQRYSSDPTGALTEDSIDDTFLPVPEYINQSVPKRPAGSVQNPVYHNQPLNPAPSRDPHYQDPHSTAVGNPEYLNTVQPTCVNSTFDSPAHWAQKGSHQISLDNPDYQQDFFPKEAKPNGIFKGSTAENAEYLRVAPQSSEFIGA

SMILES	IC50 [1] [nM]	IC50 [2] [nM]	IC50 [3] [nM]
COc1cc2ncnc(-c3cn(C)nc3-c3ccccc3)c2cc1O[C@@H]1CCOC[C@H]1F [Example 18, 6-(((3R,4R)-3-fluorotetrahydro-2H-pyran-4-yl)oxy)-7-methoxy-4-(1-methyl-3-phenyl-1H-pyrazol-4-yl)quinazoline]	1.8	4.3	3.1
COc1cc2ncnc(-c3cn(C4CC4)nc3-c3ccccc3)c2nc1NC(=O)[C@]12C[C@H]1CN(C)C2 (single isomer, unassigned) [Example 407, (1R,5R)—N-(4-(1-cyclopropyl-3-phenyl-1H-pyrazol-4-yl)-7-methoxypyrido[3,2-d]pyrimidin-6-yl)-3-methyl-3-azabicyclo[3.1.0]hexane-1-carboxamide or (1S,5S)—N-(4-(1-cyclopropyl-3-phenyl-1H-pyrazol-4-yl)-7-methoxypyrido[3,2-d]pyrimidin-6-yl)-3-methyl-3-azabicyclo[3.1.0]hexane-1-carboxamide]	0.7	1.4	2.1
COc1cc2ncnc(-c3cn(C)nc3-c3ccccc3)c2cc1NC(=O)N1C[C@@H](C)OC[C@@H]1C [Example 183, (2R,5S)-N-(7-methoxy-4-(1-methyl-3-phenyl-1H-pyrazol-4-yl)quinazolin-6-yl)-2,5-dimethylmorpholine-4-carboxamide]	3.6	10.7	8
CCn1cc([C@@H](C)Oc2nc3c(-c4cn(C)nc4-c4ccccc4)ncnc3cc2OC)nn1 [Example 35, (R)-6-(1-(1-ethyl-1H-1,2,3-triazol-4-yl)ethoxy)-7-methoxy-4-(1-methyl-3-phenyl-1H-pyrazol-4-yl)pyrido[3,2-d]pyrimidine]	1.9	2.7	2.3
C[C@H](O)c1cc2c(-c3cn(CC(F)F)nc3-c3ccccc3)ncnc2cc1-c1cnn(C)c1 (single isomer, unassigned) [Example 446, (S)-1-(4-(1-(2,2-difluoroethyl)-3-phenyl-1H-pyrazol-4-yl)-7-(1-methyl-1H-pyrazol-4-yl)quinazolin-6-yl)ethan-1-ol or (R)-1-(4-(1-(2,2-difluoroethyl)-3-phenyl-1H-pyrazol-4-yl)-7-(1-methyl-1H-pyrazol-4-yl)quinazolin-6-yl)ethan-1-ol]	0.6	0.7	0.9
CCOc1cc2ncnc(-c3cn(C)nc3-c3ccccc3F)c2nc1NC(=O)[C@]12C[C@H]1CN(C)C2 (single isomer, unassigned) [Example 401, (1R,5R)—N-(7-ethoxy-4-(3-(2-fluorophenyl)-1-methyl-1H-pyrazol-4-yl)pyrido[3,2-d]pyrimidin-6-yl)-3-methyl-3-azabicyclo[3.1.0]hexane-1-carboxamide or (1S,5S)—N-(7-ethoxy-4-(3-(2-fluorophenyl)-1-methyl-1H-pyrazol-4-yl)pyrido[3,2-d]pyrimidin-6-yl)-3-methyl-3-azabicyclo[3.1.0]hexane-1-carboxamide]	1.2	2.3	53
CCOc1cc2ncnc(-c3cn(C)nc3-c3ccccc3)c2cc1OC [Example 25, 7-ethoxy-6-methoxy-4-(1-methyl-3-phenyl-1H-pyrazol-4-yl)quinazoline]	0.9	2.1	1.4
COc1cc2ncnc(-c3cn(C)nc3-c3ccccc3)c2cc1-c1cccc(C(=O)NC2CC2)c1 [Example 142, N-cyclopropyl-3-(7-methoxy-4-(1-methyl-3-phenyl-1H-pyrazol-4-yl)quinazolin-6-yl)benzamide]	2.8	7.1	3.2
COc1cc2ncnc(-c3cn(C)nc3-c3ccccc3)c2cc1NC(=O)c1c(C)cccc1F [Example 201, 2-fluoro-N-(7-methoxy-4-(1-methyl-3-phenyl-1H-pyrazol-4-yl)quinazolin-6-yl)-6-methylbenzamide]	1.4	3.8	2
COc1cc2ncnc(-c3cn(C)nc3-c3ccc(F)cc3)c2nc1NC(=O)[C@@]12COC[C@@H]1C2 (single isomer, unassigned) [Example 382, (1R,5R)—N-(4-(3-(4-fluorophenyl)-1-methyl-1H-pyrazol-4-yl)-7-methoxypyrido[3,2-d]pyrimidin-6-yl)-3-oxabicyclo[3.1.0]hexane-1-carboxamide or (1S,5S)—N-(4-(3-(4-fluorophenyl)-1-methyl-1H-pyrazol-4-yl)-7-methoxypyrido[3,2-d]pyrimidin-6-yl)-3-oxabicyclo[3.1.0]hexane-1-carboxamide]	0.6	1.6	2.4
COc1cc2ncnc(-c3cn(C)nc3-c3ccccc3)c2cc1O[C@H]1CN(C)C[C@H]1F [Example 4, 6-(((3S,4R)-4-fluoro-1-methylpyrrolidin-3-yl)oxy)-7-methoxy-4-(1-methyl-3-phenyl-1H-pyrazol-4-yl)quinazoline]	2.4	8.5	4.1
COc1cc2ncnc(-c3cn(C)nc3-c3ccccc3)c2cc1NC(=O)c1cnc(C)c(F)c1 [Example 196, 5-fluoro-N-(7-methoxy-4-(1-methyl-3-phenyl-1H-pyrazol-4-yl)quinazolin-6-yl)-6-methylnicotinamide]	0.9	1.5	1.7
COc1cc2ncnc(-c3cn(C)nc3-c3ccccc3)c2cc1NC(=O)N1CCN(C)[C@@H](C)[C@H]1C (single isomer, unassigned) [Example 180, (2R,3S)—N-(7-methoxy-4-(1-methyl-3-phenyl-1H-pyrazol-4-yl)quinazolin-6-yl)-2,3,4-trimethylpiperazine-1-carboxamide or (2S,3R)—N-(7-methoxy-4-(1-methyl-3-phenyl-1H-pyrazol-4-yl)quinazolin-6-yl)-2,3,4-trimethylpiperazine-1-carboxamide]	2.2	4	3.8
COc1cc2ncnc(-c3cn(C)nc3-c3ccccc3)c2cc1OC(=O)N1CCN(C)C(C)(C)C1 [Example 77, 7-methoxy-4-(1-methyl-3-phenyl-1H-pyrazol-4-yl)quinazolin-6-yl 3,3,4-trimethylpiperazine-1-carboxylate]	3.5	9.7	7.2
CCn1cc(-c2ncnc3cc(OC)c(NC(=O)[C@]45COC[C@H]4C5)cc23)c(-c2ccccc2)n1 [Example 289, (1S,5S)—N-(4-(1-ethyl-3-phenyl-1H-pyrazol-4-yl)-7-methoxyquinazolin-6-yl)-3-oxabicyclo[3.1.0]hexane-1-carboxamide]	0.8	1.5	1.5
COc1cc2ncnc(-c3cn(C)nc3-c3c(F)cccc3F)c2cc1OC(=O)N1CCOC[C@@H]1C [Example 67, 4-(3-(2,6-difluorophenyl)-1-methyl-1H-pyrazol-4-yl)-7-methoxyquinazolin-6-yl (S)-3-methylmorpholine-4-carboxylate]	2.8	12.4	8.3
COc1cc2ncnc(-c3cn(C)nc3-c3ccccc3)c2nc1NC(=O)[C@@]1(C)CCCO1 [Example 363, (R)-N-(7-methoxy-4-(1-methyl-3-phenyl-1H-pyrazol-4-yl)pyrido[3,2-d]pyrimidin-6-yl)-2-methyltetrahydrofuran-2-carboxamide]	1.7	3.5	5.4
COc1cc2ncnc(-c3cn(C)nc3-c3ccccc3)c2cc1NC(=O)c1ccn(C(C)C)n1 [Example 205, 1-isopropyl-N-(7-methoxy-4-(1-methyl-3-phenyl-1H-pyrazol-4-yl)quinazolin-6-yl)-1H-pyrazole-3-carboxamide]	0.8	0.8	1.2
COc1cc2ncnc(-c3cn(C)nc3-c3ccccc3)c2cc1[C@H](C)O (single isomer, unassigned) [Example 116, (S)-1-(7-methoxy-4-(1-methyl-3-phenyl-1H-pyrazol-4-yl)quinazolin-6-yl)ethan-1-ol or (R)-1-(7-methoxy-4-(1-methyl-3-phenyl-1H-pyrazol-4-yl)quinazolin-6-yl)ethan-1-ol]	1.1	11.5	1.2
COc1cc2ncnc(-c3cn(C)nc3-c3ccccc3)c2cc1NC(=O)c1cncc(C)c1 [Example 321, N-(7-methoxy-4-(1-methyl-3-phenyl-1H-pyrazol-4-yl)quinazolin-6-yl)-5-methylnicotinamide]	2.7	5.3	5.2
CCOc1cc2ncnc(-c3cn(CC)nc3-c3ccccc3)c2cc1CO [Example 124, (7-ethoxy-4-(1-ethyl-3-phenyl-1H-pyrazol-4-yl)quinazolin-6-yl)methanol]	0.9	3	1.3
COc1cc2ncnc(-c3cn(C)nc3-c3ccccc3F)c2nc1NC(=O)[C@@]12C[C@@H]1CN(C)C2 [Example 373, (1S,5S)—N-(4-(3-(2-fluorophenyl)-1-methyl-1H-pyrazol-4-yl)-7-methoxypyrido[3,2-d]pyrimidin-6-yl)-3-methyl-3-azabicyclo[3.1.0]hexane-1-carboxamide]	0.8	2.3	2.2
Cn1cc(-c2ncnc3cc(C#CCN4CCOCC4)c(NC(=O)C45CC(C4)C5)nc23)c(-c2ccccc2)n1 [Example 454, N-(4-(1-methyl-3-phenyl-1H-pyrazol-4-yl)-7-(3-morpholinoprop-1-yn-1-yl)pyrido[3,2-d]pyrimidin-6-yl)bicyclo[1.1.1]pentane-1-carboxamide]	4.8	11	18.1
